Laboratory results reported in patent US20100041760A1, “MONOARYL AMINOTETRALINES” (priority 2008, published 2010).
pIC50: −log10 of the molar value.

Key:
[1] = molecular target: T1, thromboxane A2 receptor (TP) (Homo sapiens, UniProt P21731); assay: Human Thromboxane A2 Receptor Binding Assay; settings: human platelets; 10 nM [3H]SQ29548; 1 hour, room temperature
T1 construct: using human platelets as the source of the receptor; from tissue; host or cells: human platelets (whole platelets, 5x10^7 per well)
T1 sequence (P21731 1-343): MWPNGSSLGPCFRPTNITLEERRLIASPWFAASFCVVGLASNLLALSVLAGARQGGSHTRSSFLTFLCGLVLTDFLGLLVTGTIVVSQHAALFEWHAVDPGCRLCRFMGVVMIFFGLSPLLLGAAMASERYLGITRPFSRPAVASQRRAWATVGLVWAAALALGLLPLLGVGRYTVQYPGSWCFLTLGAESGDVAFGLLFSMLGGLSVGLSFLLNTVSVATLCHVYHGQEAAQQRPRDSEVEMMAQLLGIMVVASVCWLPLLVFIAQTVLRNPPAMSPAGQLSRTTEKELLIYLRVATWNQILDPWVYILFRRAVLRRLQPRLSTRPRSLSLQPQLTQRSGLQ
Excerpt: The thromboxane A2 receptor (TP) plays a key role in hemostasis as its abnormality leads to bleeding disorders. To avoid the potential liability of bleeding disorders, the binding activity of certain compounds of the present invention against TP was monitored by a receptor binding assay using human platelets as the source of the receptor and [^3H]SQ29548 (generically named (5Z)-[5,6-^3H]-7-[(1S,2R,3R,4R)-3-[[2-[(phenylamino)carbonyl]hydrazinyl]methyl]-7-oxabicyclo[2.2.1]hept-2-yl]-5-heptenoic acid, from PerkinElmer Inc.) as the competing radioactive ligand.
The TP binding reactions (0.2 mL) were performed in 96-well plates at room temperature in PBS containing 5×10^7 platelets, 10 mM MgCl2, 0.06% BSA, 10 nM [^3H]SQ29548, and the test compound at various concentrations. After 1 hour of binding reactions, the platelets were harvested on GF/B filter plates (as previously described from PerkinElmer Inc.) and washed 5 times with PBS using a Filtermate™ Harvester (as previously described from PerkinElmer Inc.). The radioactivities bound to the platelets were determined using a microplate scintillation counter (TopCount® NXT, from PerkinElmer Inc.) after adding 50 μL of Microscint™ 20 scintillation fluid (from PerkinElmer Inc.) to each well of the filter plates. The radioactivity from non-specific binding was determined by replacing the compound with 10 μM of ramatroban (BAY-u3405, from Cayman Chemical Company) in the reaction mixtures. The radioactivity bound to the platelets in the absence of compound (total binding) was determined by replacing the compound with 0.25% of DMSO in the reaction mixture. Specific binding data were obtained by subtracting the radioactivity of non-specific binding from each binding data.
(§1) The IC50 value is defined as the concentration of the tested compound that is required for 50% inhibition of total specific binding. In order to calculate the IC50 value, the percent inhibition data were determined for 7 concentrations for each compound. The percent inhibition for a compound at each concentration was calculated according to the following formula, [1−(specific binding in the presence of compound)/(total specific binding)]×100. The IC50 value was then obtained by fitting the percent inhibition data to a sigmoidal dose-response (4 parameter logistic) model in the XLfit® software Excel add-in program [from ID Business Solutions Ltd., model 205, where F(x)=(A+(B−A)/(1+((C/x)̂D)))].

human CRTH2 = molecular target: T2, human CRTH2 (Homo sapiens, UniProt Q9Y5Y4); assay: Human CRTH2 Receptor Binding Assay (whole cell, [3H]ramatroban competition); set-up: expressed in transfected cells; host or cells: CHO-K1 (co-transfected with G-alpha16); settings: CHO-K1 cells expressing human CRTH2 and G-alpha16; 20 nM [3H]ramatroban; 1 hour, room temperature
T2 sequence (Q9Y5Y4 1-395): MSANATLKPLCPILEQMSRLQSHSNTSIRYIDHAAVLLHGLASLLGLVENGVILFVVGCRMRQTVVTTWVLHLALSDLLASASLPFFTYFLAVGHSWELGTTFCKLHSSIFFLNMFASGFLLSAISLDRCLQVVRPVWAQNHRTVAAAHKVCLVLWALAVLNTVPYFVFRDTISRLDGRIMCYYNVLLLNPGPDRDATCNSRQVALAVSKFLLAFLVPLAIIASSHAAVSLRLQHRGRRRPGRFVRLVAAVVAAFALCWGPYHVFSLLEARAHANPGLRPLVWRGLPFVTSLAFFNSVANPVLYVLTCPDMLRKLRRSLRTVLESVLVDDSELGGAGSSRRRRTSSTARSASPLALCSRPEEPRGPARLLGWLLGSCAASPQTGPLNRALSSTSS
Excerpt: A whole cell receptor binding assay using [^3H]ramatroban as the competing radioactive ligand was employed to evaluate the compound binding activity to human CRTH2. The radioactive ligand [^3H]ramatroban was synthesized according to Sugimoto et. al. (Eur. J. Pharmacol. 524, 30-37, 2005) to a specific activity of 42 Ci/mmol.
A cell line stably expressing human CRTH2 was established by transfecting CHO-K1 cells with two mammalian expression vectors that harbored human CRTH2 and G-alpha16 cDNAs, respectively, using FuGene® 6 transfection reagent (from Roche). Stable clones expressing CRTH2 were selected by staining each clone with BM16 (BD Pharmingen™ from BD Biosciences, a division of Becton, Dickinson and Company), which is a rat monoclonal antibody to human CRTH2. The cells were maintained as monolayer cultures in Ham's F-12 medium containing 10% fetal bovine serum, 100 units/mL penicillin, 100 μg/mL streptomycin, 2 mM glutamine, 0.5 mg/mL G418 (geneticin) for CRTH2, and 0.2 mg/mL hygromycin-B (for G-alpha 16). For whole cell receptor binding assay, the monolayer cells were rinsed once with PBS (phosphate buffered saline), dissociated using ethylenediaminetetraacetate (Versene™ EDTA from Lonza Inc.), and suspended in PBS containing 10 mM MgCl2 and 0.06% BSA (bovine serum albumin) at 1.5×10^6 cells/mL.
The binding reactions (0.2 mL) were performed in 96-well plates at room temperature in PBS containing 1.5×10^5 cells, 10 mM MgCl2, 0.06% BSA, 20 nM [^3H]ramatroban, and test compound at various concentrations. After 1 hour of binding reactions, the cells were harvested on GF™/B filter microplates (microtiter plates with embedded glass fiber from PerkinElmer, Inc.) and washed 5 times with PBS using a Filtermate™ Harvester (a cell harvester that harvests and washes cells from microplates from PerkinElmer, Inc.). The radioactivities bound to the cells were determined using a microplate scintillation counter (TopCount® NXT, from PerkinElmer, Inc.) after adding 50 μL of Microscint™ 20 scintillation fluid (from PerkinElmer, Inc.) to each well of the filter plates. The radioactivity from non-specific binding was determined by replacing compound with 10 μM of 15(R)-15-methyl PGD2 (from Cayman Chemical Company) in the reaction mixtures. The radioactivity bound to the cells in the absence of compound (total binding) was determined by replacing compound with 0.25% of DMSO (dimethyl sulfoxide) in the reaction mixture. Specific binding data were obtained by subtracting the radioactivity of non-specific binding from each binding data.
as §1

SMILES | pIC50 [1] | pIC50 (human CRTH2)
CN([C@@H]1CCCc2c(OCC(=O)O)cccc21)S(=O)(=O)c1cc(F)cc(C(F)(F)F)c1 [Example 1-1, {(R)-5-[(3-fluoro-5-trifluoromethyl-benzenesulfonyl)-methyl-amino]-5,6,7,8-tetrahydro-naphthalen-1-yloxy}-acetic acid] | < 5.00 | 6.42
CCN(CC)c1cc(C(F)(F)F)cc(S(=O)(=O)N(C)[C@@H]2CCCc3c(OCC(=O)O)cccc32)c1 [Example 4-2, {(R)-5-[(3-diethylamino-5-trifluoromethyl-benzenesulfonyl)-methyl-amino]-5,6,7,8-tetrahydro-naphthalen-1-yloxy}-acetic acid] | < 5.00 | 6.11
CCOc1cc(C(F)(F)F)cc(S(=O)(=O)N(C)[C@@H]2CCCc3c(OCC(=O)O)cccc32)c1 [Example 9-2, {(R)-5-[(3-ethoxy-5-trifluoromethyl-benzenesulfonyl)-methyl-amino]-5,6,7,8-tetrahydro-naphthalen-1-yloxy}-acetic acid] | < 5.00 | 6.40
CN([C@@H]1CCCc2c(OCC(=O)O)cccc21)S(=O)(=O)c1cc(OC2CCCC2)cc(C(F)(F)F)c1 [Example 9-3, {(R)-5-[(3-cyclopentyloxy-5-trifluoromethyl-benzenesulfonyl)-methyl-amino]-5,6,7,8-tetrahydro-naphthalen-1-yloxy}-acetic acid] | 5.07 | 6.37

More lines, now with the values ahead:

pIC50 [1] | pIC50 (human CRTH2) | SMILES
6.90 | 6.47 | O=C(O)COc1cccc2c1CCC[C@H]2NS(=O)(=O)c1cc(Cl)cc(Cl)c1 [Example 10-1, [(R)-5-(3,5-dichloro-benzenesulfonylamino)-5,6,7,8-tetrahydro-naphthalen-1-yloxy]-acetic acid]
5.62 | 7.89 | O=C(O)COc1cccc2c1CCC[C@H]2NS(=O)(=O)c1cc(F)cc(F)c1 [Example 10-5, [(R)-5-(3,5-difluoro-benzenesulfonylamino)-5,6,7,8-tetrahydro-naphthalen-1-yloxy]-acetic acid]
6.47 | 7.70 | O=C(O)COc1cccc2c1CCC[C@H]2NS(=O)(=O)c1cc(F)cc(C(F)(F)F)c1 [Example 10-12, [(R)-5-(3-fluoro-5-trifluoromethyl-benzenesulfonylamino)-5,6,7,8-tetrahydro-naphthalen-1-yloxy]-acetic acid]
